Data set [1] relates to Staphylococcus aureus. Description: Antibacterial activity against methicillin-resistant Staphylococcus aureus 3392 assessed as inhibition of bacterial growth incubated for 16 to 18 hrs by CLSI based two-fold serial dilution method. In kind it is functional. The note with it: time 16-18 hrs.
In data set [2] the test system is Staphylococcus aureus. Description: Bactericidal against methicillin-resistant Staphylococcus aureus USA300 assessed as total eradication of bacterial colonies at 1 to 2 times MIC measured upto 7 hrs by time kill assay. The data set is classed as functional, organism-based.
Data set [3] concerns Pseudomonas aeruginosa. Nature of the data set: Antibacterial activity against Pseudomonas aeruginosa 408 assessed as inhibition of bacterial growth incubated for 16 to 18 hrs by CLSI based two-fold serial dilution method. In kind it is functional. The note with it: time 16-18 hrs.
For data set [4], the system named is Staphylococcus aureus. Description: Antibacterial activity against methicillin-resistant Staphylococcus aureus 3390 assessed as inhibition of bacterial growth incubated for 16 to 18 hrs by CLSI based two-fold serial dilution method. The data set is classed as functional. The note with it: time 16-18 hrs.
The nature of data set [5]: Cytotoxicity against human L02 cells assessed as inhibition of cell growth incubated for 24 hrs by MTT assay. The data set is classed as toxicity, cell-based.
The test system of data set [6] is Pseudomonas aeruginosa. Description: Antibacterial activity against Pseudomonas aeruginosa 535 assessed as inhibition of bacterial growth incubated for 16 to 18 hrs by CLSI based two-fold serial dilution method. The following applies: time 16-18 hrs. The data set is classed as functional.
In data set [7] the test system is Staphylococcus aureus. Nature of the data set: Bactericidal against methicillin-resistant Staphylococcus aureus USA300 assessed as elimination of bacterial colonies at 16 ug/ml measured within 5 hrs by time kill assay relative to control. In kind it is functional. The following applies: dose 16 µg/ml.
The nature of data set [8]: Toxicity in ICR mouse infected with methicillin-resistant Staphylococcus aureus USA300 assessed as reduction in body weight at 10 mg/kg, sc administered as dual dose and measured after 3 days. In kind it is organism-based. The following applies: in vivo, 72 h, time 3 day.
Data set [9] deals with Acinetobacter baumannii. Description: Antibacterial activity against Acinetobacter baumannii 1309 assessed as inhibition of bacterial growth incubated for 16 to 18 hrs by CLSI based two-fold serial dilution method. In kind it is functional. The note with it: time 16-18 hrs.
Data set [10] deals with Cell membrane. Nature of the data set: Induction of cell membrane damage in methicillin-resistant Staphylococcus aureus USA300 assessed as disruption of cell membrane at 16 ug/ml measured after 0.5 hrs by SEM analysis. The data set is classed as cell membranes. The following applies: dose 16.0 µg/ml.
Data set [11] concerns Cell membrane. Nature of the data set: Disruption of cell membrane integrity in methicillin-resistant Staphylococcus aureus USA300 assessed as increase in fluorescence intensity measured after 0 to 30 mins by SYTOX Green staining based analysis. In kind it is cell membranes. The following applies: dose 2-16 µg/ml, time 0-30 min.
For data set [12], the system named is Erythrocyte. Nature of the data set: Hemolytic activity in sheep RBC at 30 ug/ml incubated for 1 hr by absorbance based analysis. The data set is classed as toxicity, cell-based, Ovis aries. The note with it: dose 30 µg/ml.
For data set [13], the system named is Staphylococcus aureus. Description: Antibacterial activity against methicillin-resistant Staphylococcus aureus USA300 assessed as inhibition of bacterial growth incubated for 16 to 18 hrs by CLSI based two-fold serial dilution method. In kind it is functional. The following applies: time 16-18 hrs.
Data set [14] has as its system Staphylococcus aureus. Description: Resistance development in methicillin-resistant Staphylococcus aureus USA300 assessed as increase in MIC measured after 15 passages. The data set is classed as functional, organism-based.
Data set [15] concerns Staphylococcus aureus. Nature of the data set: Antibacterial activity against methicillin-resistant Staphylococcus aureus USA300 infected in ICR mouse assessed as reduction in bacterial load in infected thigh at 10 mg/kg, sc pre-infected with bacteria for 2 hrs followed by compound administration as dual dose and measured after 3 days. In kind it is functional, organism-based. The note with it: time 3.0 day.

For data set [16], the system named is Acinetobacter baumannii. Description: Antibacterial activity against Acinetobacter baumannii 1310 assessed as inhibition of bacterial growth incubated for 16 to 18 hrs by CLSI based two-fold serial dilution method. In kind it is functional. The note with it: time 16-18 hrs.
Data set [17] has as its system Staphylococcus aureus. Nature of the data set: Bactericidal against methicillin-resistant Staphylococcus aureus USA300 assessed as reduction in bacterial colonies at 32 ug/ml measured upto 7 hrs by time kill assay. The data set is classed as functional, organism-based. The following applies: dose 32.0 µg/ml.
The subject of data set [18] is HEK-293T. Nature of the data set: Cytotoxicity against HEK293T cells assessed as effect on cell viability at 35 ug/ml incubated for 24 hrs by MTT assay. The data set is classed as toxicity, cell-based. The note with it: human, dose 35 µg/ml.
The test system of data set [19] is Staphylococcus aureus. Nature of the data set: Antibacterial activity against methicillin-resistant Staphylococcus aureus 330041 assessed as inhibition of bacterial growth incubated for 16 to 18 hrs by CLSI based two-fold serial dilution method. In kind it is functional. The note with it: time 16-18 hrs.
The test system of data set [20] is Cell membrane. Nature of the data set: Induction of cell membrane damage in methicillin-resistant Staphylococcus aureus USA300 assessed as appearance of wrinkles in cell surface at 16 ug/ml measured after 0.5 hrs by SEM analysis. The following applies: dose 16.0 µg/ml. In kind it is cell membranes.
Data set [21] can be described thus: Toxicity in ICR mouse infected with methicillin-resistant Staphylococcus aureus USA300 assessed as reduction in body weight at 20 mg/kg, sc administered as dual dose and measured after 3 days. In kind it is organism-based. The following applies: in vivo, 72 h, time 3 day.
The test system of data set [22] is Erythrocyte. Nature of the data set: Hemolytic activity in sheep RBC at 20 ug/ml incubated for 1 hr by absorbance based analysis. The data set is classed as toxicity, cell-based, Ovis aries. The note with it: dose 20 µg/ml.
Data set [23] relates to Cell membrane. Description: Induction of cell membrane damage in methicillin-resistant Staphylococcus aureus USA300 assessed as appearance of wrinkles in cell surface at 8 ug/ml measured after 0.5 hrs by SEM analysis. In kind it is cell membranes. The note with it: dose 8.0 µg/ml.
For data set [24], the system named is Staphylococcus aureus. Description: Antibacterial activity against methicillin-resistant Staphylococcus aureus USA300 infected in ICR mouse assessed as reduction in bacterial load in infected thigh at 20 mg/kg, sc pre-infected with bacteria for 2 hrs followed by compound administration as dual dose and measured after 3 days. The following applies: time 3.0 day. In kind it is functional, organism-based.

The subject of data set [25] is Cell membrane. Description: Induction of cell membrane damage in methicillin-resistant Staphylococcus aureus USA300 assessed as disruption of cell membrane at 8 ug/ml measured after 0.5 hrs by SEM analysis. The note with it: dose 8.0 µg/ml. The data set is classed as cell membranes.
The test system of data set [26] is Cell membrane. Description: Disruption of cell membrane integrity in methicillin-resistant Staphylococcus aureus USA300 assessed as increase in fluorescence intensity measured after 0 to 100 mins by SYTOX Green staining based analysis. The data set is classed as cell membranes. The note with it: dose 2-32 µg/ml, time 0-100 min.
Data set [27] relates to Staphylococcus aureus. Description: Bactericidal against methicillin-resistant Staphylococcus aureus USA300 assessed as elimination of bacterial colonies at 16 ug/ml measured within 3 hrs by time kill assay relative to control. The data set is classed as functional. The following applies: dose 16 µg/ml.

The source made the active and inactive calls. The rule behind the calls is not given here.

On to `Br.O=C(CCCCCCCCC[P+](c1ccc(F)cc1)(c1ccc(F)cc1)c1ccc(F)cc1)OC[C@H](NC(=O)C(Cl)Cl)[C@H](O)c1ccc([N+](=O)[O-])cc1`, for which the MIC in data set [1] was 2 mg/L; in data set [3], above 64 mg/L; in data set [4], 2 mg/L; in data set [6], above 64 mg/L; in data set [9], above 64 mg/L; in data set [13], 2 mg/L. The values for the MIC in [16] and in data set [19] were above 64 mg/L and 1 mg/L, respectively. Further, the result in data set [2], in data set [14] and in data set [15] was inactive. The IC50 at 24 h in [5] is above 64 mg/L. Moreover, the Activity was 100% in data set [7]; “Non-Toxic” in [8]; “Dose-Dependent Effect” in [11]; “Non-Toxic” in data set [12]; “Non-Toxic” in [18]. Moreover, the result in data set [10], in data set [17] and in data set [20] was Active.
With `Br.O=C(CCCCCCCCC[P+](c1ccccc1)(c1ccccc1)c1ccccc1)OC[C@H](NC(=O)C(Cl)Cl)[C@H](O)c1ccc([N+](=O)[O-])cc1`, the MIC is 1 mg/L in [1]; above 64 mg/L in data set [3]; 1 mg/L in [4]; above 64 mg/L in data set [6]; above 64 mg/L in data set [9]; 1 mg/L in data set [13]. In addition, the MIC was 32 mg/L in [16] and 1 mg/L in data set [19]. Moreover, the outcome in data set [2] and in data set [14] was inactive. For the same compound, the Activity entry in [21] was “Non-Toxic”; in data set [22], “Non-Toxic”; in data set [26], “Dose-Dependent Effect”; in [18] it was “Non-Toxic”; in [27], 100%. Moreover, the IC50 at 24 h in data set [5] is above 32 mg/L. In addition, the outcome in data set [23], in data set [24], in [25] and in [17] was Active.

Usually MIC stands for the lowest concentration that inhibits growth of the organism. For orientation: IC50 means the concentration that gives 50% inhibition.

Values taken from ChEMBL document CHEMBL5537147, “Development of membrane-targeting TPP+-chloramphenicol conjugates to combat methicillin-resistant staphylococcus aureus (MRSA) infections” (Eur J Med Chem, 2024).
